Test results published in patent US5366983A, “Use of quaternary ammonium compounds to remove salmonella contamination from meat products” (The Board of Trustees of The University of Arkansas, priority 1992, dated 1994).
Values joined by “and” are separate entries in the source; they are usually repeats but may differ in a detail not shown here. Equal entries are not always repeated. Where two headings read alike, the source gives them in different places.

Columns and labels:
[1] = tested on: Staphylococcus aureus ATCC 29213; details: S. aureus; cited from earlier work
[2] = tested on: Escherichia coli ATCC 25922; details: E. coli; cited from earlier work
[3] = tested on: Salmonella typhimurium ATCC 14028 attached to human buccal epithelial cells; type: cell-based; details: Table A-1
[4] = tested on: Salmonella typhimurium ATCC 14028 attached to human buccal epithelial cells; test: microbe, parasite or virus in culture; type: cell-based; details: for adherence, mean value of attached bacteria: Table A-3
Description: Additional studies on the detachment of Salmonella typhimurium from human buccal epithelial cells were conducted.
S. typhimurium ATCC 14028 was grown in nutrient broth (BBL Microbiology system, Cockeysville, Md.) for 16 hours at 37° C. The cells were centrifuged and washed twice with 0.008 M phosphate buffered saline (PBS, at pH 7.2) at 4500 rpm for 10 minutes. The last suspension was diluted in PBS to obtain a cell concentration 0.5 to 1×10^9 cells/ml using spectrophotometric measurement. Human epithelial cells were obtained by swabbing the buccal surface of a healthy, nonsmoking donor. […] The number of living cells was estimated and the suspension was diluted to 0.5 to 1×10^5 cells/ml.
The suspension of the human buccal cells was mixed with an equal volume of the bacterial suspension (3.0 ml), or PBS (0.8 ml) in 10 ml Erlenmeyer flasks. Contact was allowed for 1.5 hours at 35° C. under agitation. After incubation, 1.0 ml of each suspension was transferred into an Eppendorff vial, centrifuged at 3000 rpm for 10 minutes, and washed with PBS. The cells were treated with 1.0 ml PBS or 1.0 ml of the test chemical solution. Treatment was performed by suspending, gently vortexing, and centrifuging at 1500 rpm for 10 minutes. After the treatment, the cells were washed and placed on microscopic slides for examination.
EC50 represents the inverse measurement of the potency of a compound. EC50 values were determined by a nonlinear regression of the detachment effect versus the cationic surfactant concentration data from Table A-3.

[5] = tested on: Salmonella typhimurium on chicken skin; test: Effect of surfactants on Salmonella attached to chicken skin, drumsticks (Tables F1-F4); details: 25° C.
[6] = tested on: Salmonella typhimurium ATCC 14028; test: Effect on viability of Salmonella in suspension (Tables D-1 to D-3); type: cell-based; details: for bacterial viability: Table D-1
Summary of the method: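 Bactericidal activity against Salmonella measured in suspension; EC50 derived by nonlinear regression of kill versus molar concentration. Na2-EDTA and EGTA dissolved and diluted in 0.04 M PPB; EGTA heated 15 minutes at 80° C., adjusted to pH 7.0 with NaOH, filter-sterilized.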

[7] = tested on: Salmonella typhimurium ATCC 14028; test: Minimum growth inhibitory concentration, macrodilution; type: cell-based; details: Mueler Hinton broth, macrodilution (NCCLS)
Description: Minimum growth inhibitory concentrations (MICs) of quaternary ammonium compounds and Na2 -EDTA for Salmonella were determined using Mueler Hinton broth (BBL Microbiology system, Cockeysville, Md.) and by the macrodilution method established by the National Committee for Clinical Laboratory Standards (NCCLS). Escherichia coli ATCC 25922 and Staphylococcus aureus ATCC 29213 were included in each assay as reference strains.

CC1(C)S[C@@H]2[C@H](NC(=O)[C@H](N)c3ccccc3)C(=O)N2[C@H]1C(=O)O [ampicillin]
acceptable MIC by NCCLS [1]: 0.5 to 2 µg/mL | acceptable MIC by NCCLS [2]: 2 to 8 µg/mL

CCCCCCCCCCCCCC[N+](C)(C)C.[Br-] [TTMAB, tetradecyltrimethylammonium bromide]
adherence, mean value of attached bacteria ([3]; 5 ug/ml): 37 ± 20 | adherence, mean value of attached bacteria ([3]; 10 ug/ml): 39 ± 26 | adherence, mean value of attached bacteria ([3]; 25 ug/ml): 24 ± 13 | adherence, mean value of attached bacteria ([3]; 50 ug/ml): 28 ± 14 | adherence, mean value of attached bacteria ([4]; 25 ug/ml): 91 ± 66 | adherence, mean value of attached bacteria ([4]; 50 ug/ml): 53 ± 34 | adherence, mean value of attached bacteria ([4]; 75 ug/ml): 72 ± 53 | adherence, mean value of attached bacteria ([4]; 100 ug/ml): 42 ± 22 and 26 ± 14 | adherence, mean value of attached bacteria ([4]; 175 ug/ml): 28 ± 10 | EC50 ([4]; Salmonella enterica, Epithelial cell, read-out: EC50 (±SD), detachment): 129 ± 3.9 µM | minimal effective concentration ([4]; Salmonella enterica, Epithelial cell, read-out: active concentration, detachment): 25 µg/mL | Enrichment, chicken legs out of ten ([5]; 0.1%): 0/10 | Rinse H2O ([5]; 0.1%): ++ (11-100) | Surfactant Solution ([5]; 0.1%): 0 CFU/ml | Swabs, chicken legs producing the notated number of colonies ([5]; 0.1%): 5/10 | Swabs, colonies ([5]; 0.1%): + (1-10) | Wash H2O, colonies ([5]; 0.1%): 0 CFU/ml | Enrichment, chicken legs out of ten ([5]; 1.0%): 0/10 | Rinse H2O ([5]; 1.0%): 0 CFU/ml | Surfactant Solution ([5]; 1.0%): 0 CFU/ml | Swabs, chicken legs producing the notated number of colonies ([5]; 1.0%): 0/10 | Wash H2O, colonies ([5]; 1.0%): 0 CFU/ml | Enrichment, chicken legs out of ten ([5]; .01%): 8/10 | Rinse H2O ([5]; .01%): + (1-10) | Surfactant Solution ([5]; .01%): 0 CFU/ml | Swabs, chicken legs producing the notated number of colonies ([5]; .01%): 10/10 | Swabs, colonies ([5]; .01%): + (1-10) | Wash H2O, chicken legs producing the notated number of colonies ([5]; .01%): 10/10 | Wash H2O, colonies ([5]; .01%): ++ (11-100) | bacterial viability ([6]; 10 ug/ml): 1.33 ± 0.09 × 10^9 CFU/ml | bacterial viability ([6]; 20 ug/ml): 1.06 ± 0.08 × 10^9 CFU/ml | bacterial viability ([6]; 60 ug/ml): 1.52 ± 2.07 × 10^3 CFU/ml | bacterial viability ([6]; 80 ug/ml): 100 ± 173 CFU/ml | bacterial viability ([6]; 100 ug/ml): 0 CFU/ml | EC50 ([6]; Salmonella enterica, read-out: EC50 (±SD), effect on viability in suspension): 105 ± 0.8 µM | MIC [7]: 60 µg/mL | MIC ([7]; Salmonella enterica): 64 µg/mL
